Patent publication US20260125375A1 (Pfizer Inc., priority 2022, published 2026)

Tests used:
CBL-B (residues 36-427) = biological target: T1, CBL-B (residues 36-427) (Homo sapiens, UniProt Q13191); test: Ligand Displacement Assay (LDA), HTRF competitive binding against BODIPY-labeled fluorescent tracer, CBL-B; conditions: geometric mean of the number of tests, read-out: CBL-B Ki (nM) GMean
T1 construct: Purified CBL-B (residues 36-427) and C-CBL (residues 46-435) proteins from baculovirus-infected insect cells; made in house; host or cells: baculovirus-infected insect cells
Outline: (§1)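 Ki values, given as geometric means of repeated tests, come from TR-FRET displacement of a BODIPY-labelled tracer from terbium-streptavidin-bound, AviTag-biotinylated protein made in baculovirus-infected insect cells. Compounds ran as three-fold dilutions in duplicate, […], 2% DMSO.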

C-CBL (residues 46-435) = biological target: T2, C-CBL (residues 46-435) (Homo sapiens, UniProt P22681); test: Ligand Displacement Assay (LDA), HTRF competitive binding against BODIPY-labeled fluorescent tracer, C-CBL; conditions: geometric mean of the number of tests, read-out: C-CBL Ki (nM) GMean
T2 construct: Purified CBL-B (residues 36-427) and C-CBL (residues 46-435) proteins from baculovirus-infected insect cells; made in house; host or cells: baculovirus-infected insect cells
T2 sequence (P22681 46-435): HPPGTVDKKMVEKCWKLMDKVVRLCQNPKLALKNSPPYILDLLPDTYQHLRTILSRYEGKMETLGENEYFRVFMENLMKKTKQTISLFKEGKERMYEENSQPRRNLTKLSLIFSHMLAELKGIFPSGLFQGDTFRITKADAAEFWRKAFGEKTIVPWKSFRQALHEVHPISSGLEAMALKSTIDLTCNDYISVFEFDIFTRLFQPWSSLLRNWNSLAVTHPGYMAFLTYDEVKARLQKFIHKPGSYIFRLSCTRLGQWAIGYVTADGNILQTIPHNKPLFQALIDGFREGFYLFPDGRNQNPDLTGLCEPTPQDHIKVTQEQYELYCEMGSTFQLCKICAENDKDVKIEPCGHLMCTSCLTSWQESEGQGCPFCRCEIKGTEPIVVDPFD
Outline: as §1

WT CBL-B (36-427) = biological target: T3, WT CBL-B (36-427) (Homo sapiens, UniProt Q13191); test: Surface Plasmon Resonance (SPR) assay, binding affinity and kinetics, CBL-B; conditions: SPR at 10° C., biotinylated WT CBL-B (36-427) on streptavidin chip; geometric mean; read-out: CBL-B SPR Kd (nM) GMean
T3 construct: N-terminal biotinylated WT CBL-B (36-427) and C-CBL (46-435) were captured on a streptavidin (SA) coated sensor chip
Outline: (§2)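 Biotinylated WT CBL-B (36-427) or C-CBL (46-435) captured on streptavidin chip (~5000–6000 RU); binding at 10° C in HEPES buffer pH 7.2 with 2% DMSO. Multi-cycle: 2-fold, 10-point series from 10 or 100 μM, 90 s association. Single-cycle: 3-fold, 6-point, 0.001–1 μM, 120 s association, >5400 s dissociation.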

C-CBL (46-435) = biological target: T4, C-CBL (46-435) (Homo sapiens, UniProt P22681); test: Surface Plasmon Resonance (SPR) assay, binding affinity and kinetics, C-CBL; conditions: SPR at 10° C., biotinylated C-CBL (46-435) on streptavidin chip; geometric mean; read-out: C-CBL SPR Kd (nM) GMean
T4 construct: N-terminal biotinylated WT CBL-B (36-427) and C-CBL (46-435) were captured on a streptavidin (SA) coated sensor chip
T4 sequence (P22681 46-435): T2 sequence (P22681 46-435)
Outline: as §2

Row | SMILES | Ki (CBL-B (residues 36-427)) [nM] | Ki (C-CBL (residues 46-435)) [nM] | Kd (WT CBL-B (36-427)) [nM] | Kd (C-CBL (46-435)) [nM]
1 | Cn1cnnc1CC1(c2cccc(-c3n[nH]c4c(CN5CC[C@@H](F)C5)nc(C(F)(F)F)cc34)c2)COC1 [Example C71, 7-{[(3R)-3-fluoropyrrolidin-1-yl]methyl}-3-(3-{3-[(4-methyl-4H-1,2,4-triazol-3-yl)methyl]oxetan-3-yl}phenyl)-5-(trifluoromethyl)-1H-pyrazolo[3,4-c]pyridine] | 25.5 | 124 | 10.8 | 108
2 | Cn1cnnc1[C@@H](c1cccc(-c2n[nH]c3c(CN[C@H]4C[C@@H](O)C4)nc(C(F)(F)F)cc23)c1)C1CCC1 [Example C120, (1s,3s)-3-({[3-{3-[(R)-cyclobutyl(4-methyl-4H-1,2,4-triazol-3-yl)methyl]phenyl}-5-(trifluoromethyl)-1H-pyrazolo[3,4-c]pyridin-7-yl]methyl}amino)cyclobutan-1-ol] | 13.6 | 105 | 11.1 | 156
3 | Cn1cnnc1CC1(c2cccc(-c3n[nH]c4c(CCN)nc(C(F)(F)F)cc34)c2)COC1 [Example K5, 2-[3-(3-{3-[(4-methyl-4H-1,2,4-triazol-3-yl)methyl]oxetan-3-yl}phenyl)-5-(trifluoromethyl)-1H-pyrazolo[3,4-c]pyridin-7-yl]ethan-1-amine] | 55.3 | 199 | 23.6 | 221
4 | CC(CN)c1nc(C(F)(F)F)cc2c(-c3cccc(C4(Cc5nncn5C)COC4)c3)n[nH]c12 (single isomer, unassigned) [Example K6, (2ξ)-2-[3-(3-{3-[(4-methyl-4H-1,2,4-triazol-3-yl)methyl]oxetan-3-yl}phenyl)-5-(trifluoromethyl)-1H-pyrazolo[3,4-c]pyridin-7-yl]propan-1-amine] | 26.5 | 78.6 | 11.3 | 125
5 | C[C@@H]1CN(Cc2nc(C(F)(F)F)cc3c(-c4cccc(C5(Cc6nncn6C)COC5)c4)n[nH]c23)CCO1 [Example C72, 7-{[(2R)-2-methylmorpholin-4-yl]methyl}-3-(3-{3-[(4-methyl-4H-1,2,4-triazol-3-yl)methyl]oxetan-3-yl}phenyl)-5-(trifluoromethyl)-1H-pyrazolo[3,4-c]pyridine] | 18.6 | 83.3 | 2.3 | 63.1
6 | Cn1cnnc1[C@@H](c1cccc(-c2n[nH]c3c(C4CCCCN4)nc(C(F)(F)F)cc23)c1)C1CCC1 (single isomer, unassigned) [Example L2] | 90.1 | 721 | 30 | 307
7 | Cn1cnnc1[C@@H](c1cccc(-c2n[nH]c3c(CN4C[C@@H](F)[C@H](F)C4)nc(C(F)(F)F)cc23)c1)C1CCC1 [Example C111, 3-{3-[(R)-cyclobutyl(4-methyl-4H-1,2,4-triazol-3-yl)methyl]phenyl}-7-{[(3R,4R)-3,4-difluoropyrrolidin-1-yl]methyl}-5-(trifluoromethyl)-1H-pyrazolo[3,4-c]pyridine] | 26.9 | 313 | 3.3 | 282
8 | Cn1cnnc1[C@@H](c1cccc(-c2n[nH]c3c(CN4C[C@@H](O)[C@@H](O)C4)nc(C(F)(F)F)cc23)c1)C1CCC1 [Example C75, (3R,4S)-1-{[3-{3-[(R)-cyclobutyl(4-methyl-4H-1,2,4-triazol-3-yl)methyl]phenyl}-5-(trifluoromethyl)-1H-pyrazolo[3,4-c]pyridin-7-yl]methyl}pyrrolidine-3,4-diol] | 5 | 54.8 | 4.7 | 97.9
9 | CC(=O)NCC(C)c1nc(C(F)(F)F)cc2c(-c3cccc([C@H](c4nncn4C)C4CCC4)c3)n[nH]c12 (single isomer, unassigned) [Example M4] | 20.5 | 157 | 10.3 | 250
10 | Cn1cnnc1[C@@H](c1cccc(-c2n[nH]c3c(CN4CCCC4)nc(C(F)(F)F)cc23)c1)C1CCC1 [Example D94] | 29.2 | 192 | 5.5 | 163
11 | C[C@H](N[C@H]1C[C@H](O)C1)c1nc(C(F)(F)F)cc2c(-c3cccc([C@H](c4nncn4C)C4CCC4)c3)n[nH]c12 (single isomer, unassigned) [Example C91] | 12.7 | 105 | 5.1 | 129
12 | Cn1cnnc1[C@@H](c1cccc(-c2n[nH]c3c(CO)nc(C(F)(F)F)cc23)c1)C1CCC1 [Example K9, [3-{3-[(R)-cyclobutyl(4-methyl-4H-1,2,4-triazol-3-yl)methyl]phenyl}-5-(trifluoromethyl)-1H-pyrazolo[3,4-c]pyridin-7-yl]methanol] | 45.4 | 328 | 12.7 | 298
13 | C[C@@H]1CCCN(Cc2nc(C(F)(F)F)cc3c(-c4cccc([C@H](c5nncn5C)C5CCC5)c4)n[nH]c23)C1 [Example C108, 3-{3-[(R)-cyclobutyl(4-methyl-4H-1,2,4-triazol-3-yl)methyl]phenyl}-7-{[(3R)-3-methylpiperidin-1-yl]methyl}-5-(trifluoromethyl)-1H-pyrazolo[3,4-c]pyridine] | 79.4 | 630 | 5.5 | 148
14 | Cn1cnnc1CC1(c2cccc(-c3n[nH]c4c(CN5CC(F)(F)C5)nc(C(F)(F)F)cc34)c2)COC1 [Example C69, 7-[(3,3-difluoroazetidin-1-yl)methyl]-3-(3-{3-[(4-methyl-4H-1,2,4-triazol-3-yl)methyl]oxetan-3-yl}phenyl)-5-(trifluoromethyl)-1H-pyrazolo[3,4-c]pyridine] | 34.5 | 185 | 30.2 | 208
15 | C[C@@H](c1nc(C(F)(F)F)cc2c(-c3cccc(C4(Cc5nncn5C)COC4)c3)n[nH]c12)N(C)C (single isomer, unassigned) [Example D39] | 42.1 | 229 | 14.9 | 164
16 | CC(NC1CC(F)(F)C1)c1nc(C(F)(F)F)cc2c(-c3cccc(C4(Cc5nncn5C)COC4)c3)n[nH]c12 (single isomer, unassigned) [Example C94, 3,3-difluoro-N-{(1ξ)-1-[3-(3-{3-[(4-methyl-4H-1,2,4-triazol-3-yl)methyl]oxetan-3-yl}phenyl)-5-(trifluoromethyl)-1H-pyrazolo[3,4-c]pyridin-7-yl]ethyl}cyclobutan-1-amine] | 2.8 | 14.9 | 2.5 | 15
17 | C[C@@H](c1nc(C(F)(F)F)cc2c(-c3cccc(C4(Cc5nncn5C)COC4)c3)n[nH]c12)N1CCC1 (single isomer, unassigned) [Example D41] | 18.5 | 65.5 | 6.2 | 50.8
18 | Cn1cnnc1[C@@H](c1cccc(-c2n[nH]c3c(CNC4CCNC(=O)C4)nc(C(F)(F)F)cc23)c1)C1CCC1 (single isomer, unassigned) [Example C87] | 21.2 | 210 | 8.4 | 175
19 | C[C@@H](c1nc(C(F)(F)F)cc2c(-c3cccc(C4(Cc5nncn5C)COC4)c3)n[nH]c12)N1CC(F)(F)C1 (single isomer, unassigned) [Example D45] | 19.9 | 80.3 | 5.2 | 83.9
